Values of other authors, collected in patent publication US9238023B2, “Methods for improving health in humans” (Quality IP Holdings, LLC, priority 2012, dated 2016).

Assays:
hGH = conditions: for effect on hGH: other amino acids, literature
GH = conditions: subcutaneous injection of 0.06 IU, GH deficient subjects

Row | Compound | effect on hGH (hGH) | further results
1 | N[C@@H](Cc1ccccc1)C(=O)O [phenylalanine] | marked increases in hGH | –
2 | NCCCC[C@H](N)C(=O)O [lysine] | marked increases in hGH | –
3 | NCCC[C@H](N)C(=O)O [ornithine] | marked increases in hGH | –
4 | N=C(N)NCCC[C@H](N)C(=O)O [arginine] | – | elevation of serum hGH levels (hGH; 30 g, males): 8.6 fold; increase of hGH levels (hGH; intravenous infusion 183 mg/kg body weight, females): > 20 fold
5 | N[C@@H](Cc1c[nH]cn1)C(=O)O [histidine] | marked increases in hGH | –
6 | CSCC[C@H](N)C(=O)O [methionine] | marked increases in hGH | –
7 | HGH: human growth hormone, subcutaneous injection in the treatment of GH deficient subjects | – | mean levels of GH reached (GH): 0.4 ng/mL
